Measured values from patent US20080253960A1, “Lipoprotein-Based Nanoplatforms” (The Trustees of the University of Pennsylvania Center for …, priority 2004, published 2008).

Legend:
HepG2 tumor cells [1] = test: laser scanning confocal microscopy of r-(Pyro-CE)-LDL uptake; format: cell-based, human; conditions: 20 μg/mL r-(Pyro-CE)-LDL, or same amount of Pyro-CE without reconstitution into LDL
Method: To visualize LDLR-mediated internalization of these NIRF/PDT agents into tumor cells, we performed laser scanning confocal microscopy studies on r-(Pyro-CE)-LDL in HepG2 tumor cells. Four sets of experiments were performed on a Leica TCS SPII laser scanning confocal microscope (Heidelberg, Germany). […] In a control experiment, HepG2 cells were incubated with native LDL but without the photosensitizer at 37° C. for 3 h to determine any possible background fluorescence. […] To determine the specificity of this LDL based photosensitizer toward LDL receptors, HepG2 cells were incubated with either a 25-fold excess of unlabeled LDL in addition to the 20 μg/mL r-(Pyro-CE)-LDL or with the same amount of Pyro-CE but without reconstitution of this agent into LDL.

HepG2 tumor cells [2] = test: confocal microscopy of LDLR-specific uptake of r-SiPcBOA-LDL; format: cell-based, human; conditions: same amount of dye alone as in r-SiPcBOA-LDL
Method: Confocal Microscopy Studies: For confocal microscopy studies, HepG2 cells were grown in 4-well Lab-Tek chamber slides (Naperville, Ill.) at a density of 40,000 cells/well. Experiments were started, after two quick washes with pre-incubation medium (medium with 0.8% (w/v) BSA instead of FBS), by the addition of pre-incubation medium containing the indicated amounts of r-SiPcBOA-LDL/AcLDL and/or unlabeled LDL. After a 4 h incubation at 37° C., the cells were washed three times with ice-cold PBS and fixed for 15 minutes with 3% formaldehyde in PBS at room temperature. Then the chamber slides were mounted and sealed for confocal microscopy analysis. Confocal microscopy was performed with a Leica TCS SPII laser scanning confocal microscope (Heidelberg, Germany). Filter settings were 633 nm for excitation and 638-800 nm for emission. Confocal Microscopy Studies of the LDLR-Specific Uptake: To visualize LDLR-mediated internalization of r-SiPcBOA-LDL, we performed laser scanning confocal microscopy studies on HepG2 tumor cells. […] To determine the specificity of this r-SiPcBOA-LDL toward LDLR, three sets of control experiments were performed.

## pyropheophorbide cholesterol oleate [Pyro-CE]
HepG2 tumor cells [1]
  fluorescence signal (confocal): No fluorescence

## tetra-t-butyl silicon phthalocyanine bisoleate [(tBu)4SiPcBOA]
HepG2 tumor cells [2]
  fluorescence signal (confocal): did not lead to any observable fluorescence
